According to patent US12528802B2, “Heterocyclic compound” (Takeda Pharmaceutical Company Limited, priority 2019, dated 2026):

Molecular target: T1, glucosylceramide synthase (Homo sapiens, UniProt Q16739)
T1 construct: made in house; host or cells: Expi293F cells (transient expression, pcDNA3.3-TOPO vector); microsome fraction used as enzyme source
T1 sequence (Q16739 1-394): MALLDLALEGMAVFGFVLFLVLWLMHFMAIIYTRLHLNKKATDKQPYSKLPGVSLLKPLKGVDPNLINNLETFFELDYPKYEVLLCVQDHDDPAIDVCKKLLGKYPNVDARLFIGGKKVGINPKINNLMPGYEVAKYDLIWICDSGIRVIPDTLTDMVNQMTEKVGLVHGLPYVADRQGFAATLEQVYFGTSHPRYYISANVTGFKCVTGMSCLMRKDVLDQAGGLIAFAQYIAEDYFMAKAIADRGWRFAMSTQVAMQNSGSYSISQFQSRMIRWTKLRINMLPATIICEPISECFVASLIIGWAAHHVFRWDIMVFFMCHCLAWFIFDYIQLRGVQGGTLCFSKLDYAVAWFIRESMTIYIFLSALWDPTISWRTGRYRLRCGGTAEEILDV
Experiment: Glucosylceramide synthase (GCS) enzyme assay, microsome fraction, C8 glucosylceramide quantified by Rapidfire MS/MS
Assay type: biochemical
Conditions: test compound 10 μM; 1.7 μM UDP-glucose, 3 μM C8 ceramide; room temperature 60 min; read-out: GCS enzyme inhibitory rate at 10 μM (%) (% of control)
Outline: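 Test compound, 10 μM final, was run against human GCS from transfected Expi293F microsome fractions, using substrate solution of 6 μM C8 ceramide (in DOPC liposomes) plus 3.4 μM UDP-glucose, pH 7.5 Tris buffer, 60 min, room temperature. Product C8 glucosylceramide measured by Rapidfire MS/MS against an internal standard, % inhibition referenced to no-enzyme and DMSO wells.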

**Q.** `CC(O)c1cc2c(c(-c3ccccc3OCC(F)F)n1)CN(c1ccc(OC(F)F)cc1)C2=O` (racemic) [Example 358, rac-4-[2-(2,2-difluoroethoxy)phenyl]-2-[4-(difluoromethoxy)phenyl]-6-(1-hydroxyethyl)-2,3-dihydro-1H-pyrrolo[3,4-c]pyridin-1-one] was tested. Which inhibition at 10 µM did it give?
**A.** The inhibition at 10 µM was 100%.

**Q.** For `O=C1c2ccnc(-c3ccc(F)cc3OCC(F)(F)F)c2CN1c1ccc(OC2CCOCC2)cc1` [Example 98, 4-[4-fluoro-2-(2,2,2-trifluoroethoxy)phenyl]-2-{4-[(oxan-4-yl)oxy]phenyl}-2,3-dihydro-1H-pyrrolo[3,4-c]pyridin-1-one], which inhibition at 10 µM is on record?
**A.** The inhibition at 10 µM was 100%.

**Q.** Which inhibition at 10 µM does the source give for `O=C1c2ccnc(-c3ccc(F)cc3OCC(F)(F)F)c2CN1c1ccc(C(F)(F)F)cn1` [Example 61, 4-[4-fluoro-2-(2,2,2-trifluoroethoxy)phenyl]-2-[5-(trifluoromethyl)pyridin-2-yl]-2,3-dihydro-1H-pyrrolo[3,4-c]pyridin-1-one] here?
**A.** The inhibition at 10 µM was 85%.

**Q.** How did the inhibition at 10 µM turn out when `O=C1c2ccnc(-c3ccncc3OCC(F)(F)F)c2CN1c1ccc(C2(F)COC2)cc1` [Example 294, 2-[4-(3-fluorooxetan-3-yl)phenyl]-4-[3-(2,2,2-trifluoroethoxy)pyridin-4-yl]-2,3-dihydro-1H-pyrrolo [3,4-c]pyridin-1-one] was run?
**A.** Its inhibition at 10 µM is 99%.

**Q.** `COc1ccccc1-c1nccc2c1CN(c1ccc(OC(F)F)cc1)C2=O` [Example 25, 2-[4-(difluoromethoxy)phenyl]-4-(2-methoxyphenyl)-2,3-dihydro-1H-pyrrolo[3,4-c]pyridin-1-one] was tested. Which inhibition at 10 µM did it give?
**A.** The inhibition at 10 µM was 99%.

**Q.** With `CC(c1ccc(N2Cc3c(ccnc3-c3ccc(F)cc3OCC(F)(F)F)C2=O)cc1)N1CCCC1=O` (racemic) [Example 232, rac-4-[4-fluoro-2-(2,2,2-trifluoroethoxy)phenyl]-2-{4-[1-(2-oxopyrrolidin-1-yl)ethyl]phenyl}-2,3-dihydro-1H-pyrrolo[3,4-c]pyridin-1-one] as the molecule, how does the inhibition at 10 µM read?
**A.** Its inhibition at 10 µM is 82%.

**Q.** With `CC(C)n1cc(N2Cc3c(ccnc3-c3ccc(F)cc3OCC(F)(F)F)C2=O)cn1` [Example 97, 4-[4-fluoro-2-(2,2,2-trifluoroethoxy)phenyl]-2-[1-(propan-2-yl)-1H-pyrazol-4-yl]-2,3-dihydro-1H-pyrrolo[3,4-c]pyridin-1-one] as the molecule, how does the inhibition at 10 µM read?
**A.** The inhibition at 10 µM was 96%.

**Q.** Which inhibition at 10 µM does the source give for `CC(C)(O)c1ccc(N2Cc3c(ccnc3-c3ccncc3OCC(F)(F)F)C2=O)nc1` [Example 275, 2-[5-(2-hydroxypropan-2-yl)pyridin-2-yl]-4-[3-(2,2,2-trifluoroethoxy)pyridin-4-yl]-2,3-dihydro-1H-pyrrolo [3,4-c]pyridin-1-one] here?
**A.** Its inhibition at 10 µM is 94%.

**Q.** With `NC(=O)c1ccc(-c2nccc3c2CN(c2ccc(F)cc2)C3=O)c(OC(F)F)c1` [Example 40, 3-(difluoromethoxy)-4-[2-(4-fluorophenyl)-1-oxo-2,3-dihydro-1H-pyrrolo[3,4-c]pyridin-4-yl]benzamide] as the molecule, how does the inhibition at 10 µM read?
**A.** The inhibition at 10 µM was 54%.

**Q.** For `CC(O)(c1ccc(N2Cc3c(ccnc3-c3ccc(F)cc3OCC(F)(F)F)C2=O)cc1)C(F)(F)F` (racemic) [Example 312, rac-4-[4-fluoro-2-(2,2,2-trifluoroethoxy)phenyl]-2-[4-(1,1,1-trifluoro-2-hydroxypropan-2-yl)phenyl]-2,3-dihydro-1H-pyrrolo [3,4-c]pyridin-1-one], which inhibition at 10 µM is on record?
**A.** The inhibition at 10 µM was 99%.

**Q.** With `COc1cccc(F)c1-c1nccc2c1CN(c1ccc(F)cc1)C2=O` [Example 142, 4-(2-fluoro-6-methoxyphenyl)-2-(4-fluorophenyl)-2,3-dihydro-1H-pyrrolo[3,4-c]pyridin-1-one] as the molecule, how does the inhibition at 10 µM read?
**A.** Its inhibition at 10 µM is 77%.

**Q.** How did the inhibition at 10 µM turn out when `CCS(=O)(=O)c1ccc(N2Cc3c(ccnc3-c3ccc(F)cc3OCC(F)(F)F)C2=O)cc1` [Example 110, 2-[4-(ethanesulfonyl)phenyl]-4-[4-fluoro-2-(2,2,2-trifluoroethoxy)phenyl]-2,3-dihydro-1H-pyrrolo[3,4-c]pyridin-1-one] was run?
**A.** Its inhibition at 10 µM is 97%.

**Q.** With `O=C(c1ccc(N2Cc3c(ccnc3-c3ccc(F)cc3OCC(F)(F)F)C2=O)cc1)N1CCOCC1` [Example 152, 4-[4-fluoro-2-(2,2,2-trifluoroethoxy)phenyl]-2-[4-(morpholine-4-carbonyl)phenyl]-2,3-dihydro-1H-pyrrolo[3,4-c]pyridin-1-one] as the molecule, how does the inhibition at 10 µM read?
**A.** Its inhibition at 10 µM is 90%.

**Q.** With `CC(C)(O)c1cc2c(c(-c3ccccc3OCC(F)F)n1)CN(c1ccc(C(C)(C)C#N)cc1)C2=O` [Example 360, 2-(4-{4-[2-(2,2-difluoroethoxy)phenyl]-6-(2-hydroxypropan-2-yl)-1-oxo-1,3-dihydro-2H-pyrrolo [3,4-c]pyridin-2-yl}phenyl)-2-methylpropanenitrile] as the molecule, how does the inhibition at 10 µM read?
**A.** The inhibition at 10 µM was 100%.

**Q.** Which inhibition at 10 µM does the source give for `CC(O)c1ccc(N2Cc3c(ccnc3-c3ccc(F)cc3OCC(F)(F)F)C2=O)cc1F` (racemic) [Example 292, rac-2-[3-fluoro-4-(1-hydroxyethyl)phenyl]-4-[4-fluoro-2-(2,2,2-trifluoroethoxy)phenyl]-2,3-dihydro-1H-pyrrolo [3,4-c]pyridin-1-one] here?
**A.** Its inhibition at 10 µM is 99%.

**Q.** How did the inhibition at 10 µM turn out when `O=C1c2ccnc(-c3ccc(F)cc3OCC(F)(F)F)c2CN1c1cnc(OC(F)F)cn1` [Example 100, 2-[5-(difluoromethoxy)pyrazin-2-yl]-4-[4-fluoro-2-(2,2,2-trifiuoroethoxy)phenyl]-2,3-dihydro-1H-pyrrolo[3,4-c]pyridin-1-one] was run?
**A.** The inhibition at 10 µM was 96%.

**Q.** With `CC(C)(O)c1ccc(N2Cc3c(ccnc3-c3ccccc3OCC(F)(F)F)C2=O)cc1F` [Example 262, 2-[3-fluoro-4-(2-hydroxypropan-2-yl)phenyl]-4-[2-(2,2,2-trifluoroethoxy)phenyl]-2,3-dihydro-1H-pyrrolo[3,4-c]pyridin-1-one] as the molecule, how does the inhibition at 10 µM read?
**A.** The inhibition at 10 µM was 100%.

**Q.** With `N#CC1(c2ccc(N3Cc4c(ccnc4-c4ccc(F)cc4OCC(F)(F)F)C3=O)cc2)CC1` [Example 244, 1-(4-{4-[4-fluoro-2-(2,2,2-trifluoroethoxy)phenyl]-1-oxo-1,3-dihydro-2H-pyrrolo[3,4-c]pyridin-2-yl}phenyl)cyclopropane-1-carbonitrile] as the molecule, how does the inhibition at 10 µM read?
**A.** The inhibition at 10 µM was 89%.

**Q.** How did the inhibition at 10 µM turn out when `O=C1c2ccnc(-c3ccc(F)cc3OCC(F)(F)F)c2CN1c1ccc(S(=O)(=O)C(F)F)cc1` [Example 139, 2-[4-(difluoromethanesulfonyl)phenyl]-4-[4-fluoro-2-(2,2,2-trifluoroethoxy)phenyl]-2,3-dihydro-1H-pyrrolo[3,4-c]pyridin-1-one] was run?
**A.** Its inhibition at 10 µM is 96%.

**Q.** How did the inhibition at 10 µM turn out when `N#CCOc1cc(F)ccc1-c1nccc2c1CN(c1ccc(OC(F)F)nc1)C2=O` [Example 112, (2-{2-[6-(difluoromethoxy)pyridin-3-yl]-1-oxo-2,3-dihydro-1H-pyrrolo[3,4-c]pyridin-4-yl}-5-fluorophenoxy)acetonitrile] was run?
**A.** The inhibition at 10 µM was 98%.

**Q.** Which inhibition at 10 µM does the source give for `O=C1c2ccnc(-c3ccncc3OCC(F)(F)F)c2CN1c1ccc(C2(O)CC(F)(F)C2)c(F)c1` [Example 287, 2-[4-(3,3-difluoro-1-hydroxycyclobutyl)-3-fluorophenyl]-4-[3-(2,2,2-trifluoroethoxy)pyridin-4-yl]-2,3-dihydro-1H-pyrrolo[3,4-c] pyridin-1-one] here?
**A.** Its inhibition at 10 µM is 99%.

**Q.** How did the inhibition at 10 µM turn out when `O=C1c2ccnc(-c3ccccc3OCC(F)(F)F)c2CN1c1ccc(C2(O)COC2)cn1` [Example 252, 2-[5-(3-hydroxyoxetan-3-yl)pyridin-2-yl]-4-[2-(2,2,2-trifluoroethoxy)phenyl]-2,3-dihydro-1H-pyrrolo[3,4-c]pyridin-1-one] was run?
**A.** The inhibition at 10 µM was 98%.

**Q.** Which inhibition at 10 µM does the source give for `O=C1c2ccnc(-c3ccc(F)cc3OCC(F)(F)F)c2CN1c1ccc(C2(O)CCOC2)cc1` (single isomer, unassigned) [Example 243, (R or S)-4-[4-fluoro-2-(2,2,2-trifluoroethoxy)phenyl]-2-[4-(3-hydroxyoxolan-3-yl)phenyl]-2,3-dihydro-1H-pyrrolo[3,4-c]pyridin-1-one] here?
**A.** Its inhibition at 10 µM is 97%.

**Q.** With `O=C1c2ccnc(-c3ccccc3OCC(F)(F)F)c2CN1c1ccc(OC(F)F)nc1` [Example 75, 2-[6-(difluoromethoxy)pyridin-3-yl]-4-[2-(2,2,2-trifluoroethoxy)phenyl]-2,3-dihydro-1H-pyrrolo[3,4-c]pyridin-1-one] as the molecule, how does the inhibition at 10 µM read?
**A.** Its inhibition at 10 µM is 100%.

**Q.** Which inhibition at 10 µM does the source give for `CC(C)(O)C(F)(F)c1ccc(N2Cc3c(ccnc3-c3ccc(F)cc3OCC(F)(F)F)C2=O)cn1` [Example 291, 2-[6-(1,1-difluoro-2-hydroxy-2-methylpropyl)pyridin-3-yl]-4-[4-fluoro-2-(2,2,2-trifluoroethoxy)phenyl]-2,3-dihydro-1H-pyrrolo[3,4-c]pyridin-1-one] here?
**A.** Its inhibition at 10 µM is 79%.

**Q.** Which inhibition at 10 µM does the source give for `O=C1c2ccnc(-c3ccncc3OCC(F)(F)F)c2CN1c1ccc(C(O)(C(F)F)C(F)F)cc1` [Example 284, 2-[4-(1,1,3,3-tetrafluoro-2-hydroxypropan-2-yl)phenyl]-4-[3-(2,2,2-trifluoroethoxy)pyridin-4-yl]-2,3-dihydro-1H-pyrrolo[3,4-c] pyridin-1-one] here?
**A.** The inhibition at 10 µM was 99%.

**Q.** How did the inhibition at 10 µM turn out when `CC(C)n1cc2c(c(-c3ccccc3OCC(F)(F)F)c1=O)CN(c1ccc(C(C)(C)O)cc1)C2=O` [Example 376, 2-[4-(2-hydroxypropan-2-yl)phenyl]-5-(propan-2-yl)-7-[2-(2,2,2-trifluoroethoxy)phenyl]-1H-pyrrolo[3,4-c]pyridine-3,6(2H,5H)-dione] was run?
**A.** The inhibition at 10 µM was 100%.
